Each structure is given as a SMILES string.

The values that follow come from patent publication US20230346709A1, “TABLET CONTAINING VALSARTAN AND SACUBITRIL” (ALFRED E. TIEFENBACHER (GMBH & CO. KG), priority 2017, published 2023).

This series is described as follows: Storage stability of the tablets, solid form of the active ingredients by powder XRD. The series is classed as physicochemical. The conditions noted are these: after storage in Alu-Alu blister, three months at 40° C./75% RH. Here is the method: The XRD measurements were performed using X-ray source with Cu K-alpha radiation, Empyrean system (or equivalent), PIXcel detector, divergence slit 0.25° fixed, anti-scattering slit 0.5°, soller slits 2×0.02 radians, Nickel filter to suppress back ground and Cu K-beta components, current 40 mA, voltage 45 kV, 2° - 40 ° 2θ, spinning 30 RPM, step size 0.013° with total measurement time 1 Hr at room temperature. 1. Grind about two tablets to fine powder using Agate mortar and pestle gently. Prepare the sample (approx. 350 mg) using PANalytical sample preparation kit by ‘Back loading technique’. The sample surface should be smooth and in parallel to sample holder surface. Clean the outer edges of the holder with tissue paper to avoid sample contaminations. 2. Place the prepared sample holder carefully on the sample stage of the XRD instrument and analyze as per the above XRD method conditions at room temperature.
Consider `CCCCC(=O)N(Cc1ccc(-c2ccccc2-c2nnn[n-]2)cc1)[C@H](C(=O)[O-])C(C)C.CCOC(=O)[C@H](C)C[C@@H](Cc1ccc(-c2ccccc2)cc1)NC(=O)CCC(=O)[O-].O.[Na+].[Na+].[Na+]` [LCZ696], for which the “change of solid form of the active ingredient in the tablets, powder XRD” value (“change” for short) is on record as “no crystallization”.

On to `CCCCC(=O)N(Cc1ccc(-c2ccccc2-c2nnn[nH]2)cc1)[C@H](C(=O)O)C(C)C` [valsartan disodium], for which the “change” value is listed as “no crystallization”.

Consider `CCOC(=O)[C@H](C)C[C@@H](Cc1ccc(-c2ccccc2)cc1)NC(=O)CCC(=O)O` [sacubitril monosodium], for which the “change” value is on record as “no polymorph conversion or amorphization”.
